# Values quoted from earlier work in patent US20040180832A1, “Sustained peptide-release formulation” (Peptech Limited, priority 1996, published 2004).
# System: advanced prostatic cancer
# Details: monthly subcutaneous injections
structure (smiles),measurement,value
"CC(C)C[C@H](NC(=O)[C@@H](COC(C)(C)C)NC(=O)[C@H](Cc1ccc(O)cc1)NC(=O)[C@H](CO)NC(=O)[C@H](Cc1c[nH]c2ccccc12)NC(=O)[C@H](Cc1cnc[nH]1)NC(=O)[C@@H]1CCC(=O)N1)C(=O)N[C@@H](CCCNC(=N)N)C(=O)N1CCC[C@H]1C(=O)NNC(N)=O [goserelin, 3-[5-oxo-L-prolyl-L-tryptophyl-L-seryl-L-tyrosyl-(3-O-tert-butyl)-D-seryl-L-leucyl-L-arginyl-L-prolyl] cabazamide acetate.]",efficacy in advanced prostatic cancer compared with orchiectomy,as effective as orchiectomy
same,tolerability,well tolerated
